# According to patent publication US11857552B2, “4-[[(7-aminopyrazolo[1,5-a]pyrimidin-5-yl)amino]methyl]piperidin-3-ol compounds as CDK inhibitors” (Carrick Therapeutics Limited, priority 2017, dated 2024):
# Assays:
# MDR1 = MDR1 (Homo sapiens (Human), UniProt P08183); assay: MDCK-MDR1 Efflux Ratio; format: in vitro ADME; settings: dog, MDCK-MDR1, pH 7.4, HBSS pH 7.4, 37° C.
# Description: Method 5: MDCK-MDR1 Efflux Ratio
# Materials and solutions: • MDCK/MDR1 Ready™ cell plate (Readycell). • High Glucose Cell Culture Medium (Sigma, D5671) supplemented with: 10% FBS, 1% Glutamine 200 mM, 1% Penicillin (10,000 U/mL)—Streptomycin (10 mg/mL). • HBSS Buffer (Gibco, 14065-049). • Internal standard: 0.5 μM Bupropion in acetonitrile/0.1% formic acid (aq) (1:1 v/v).
# HBSS assay buffer was prepared at pH 7.4 and warmed to 37° C. The cell culture media was removed from the Readycell plate. The Basal cells were washed with HBSS buffer (3×225 μL) and the Apical cells were washed with HBSS buffer (3×75 μL). The cells were warmed to 37° C. in a humidified CO2 (5%) atmosphere and shaken at 250 rpm for 30 min. Compound and standard solutions were prepared by diluting each compound (10 μL, 1 mM in DMSO) with HBSS (990 μL). The buffer was carefully removed from the Basal cell plate, followed by the Apical cell plate. HBSS buffer (225 μL) and compound solution (250 μL) were added to the Basal cell plate. An aliquot (25 μL) of the solutions were combined with internal standard (75 μL) and refrigerated for use as the t=0 h sample. HBSS buffer (75 μL) and compound solution (100 μL) were added to the Apical cell plate. An aliquot (25 μL) was taken and processed in the same manner as for the Basal cell plate. […]
# human CDK2/cycE1 = human CDK2/cycE1 (Homo sapiens (Human), UniProt P24941); assay: CDK2 IC50 (ADP-Glo kinase assay); format: biochemical; settings: ATP 20 μM, histone H1 substrate
# Description: (§1) A reaction mixture (6 μL) containing the following components was prepared: 60 mM HEPES (60 mM, pH 7.5), sodium orthovanadate (3 μM), PEG-20000 (50 μg/mL), DTT (1.2 mM), MgCl2 (3 mM), purified human CDK2/cycE1 (4 μg/mL), histone H1 (50 μg/mL), ATP (20 μM) and test compound at the appropriate concentration such that the final concentration of DMSO was 1% w/w. The reaction mixture was incubated at 30° C. for 75 min and then stopped by the addition of ADP-Glo Reagent (6 μL). The reaction was incubated at 25° C. for 1 h to deplete the remaining ATP. Subsequently, Kinase Detection Reagent (12 μL) was added and the reaction was allowed to proceed for 1 h at 25° C. before analysis by luminescence measurement using an Envision Plate Reader (Perkin Elmer).
# human CDK9/cycK = human CDK9/cycK (Homo sapiens (Human), UniProt P50750); assay: CDK9 IC50 (ADP-Glo kinase assay); format: biochemical; settings: ATP 8 μM, CDKtide substrate
# Description: In addition to those mentioned above for Method 1: • Human CDK9/cycK (Promega, V4104). • CDKtide (SignalChem, C06-58).
# as §1, with “CDK9/cycK (2.5” for “CDK2/cycE1 (4”, “CDKtide (35 μM),” for “histone H1 (50 μg/mL),”, “(8” for “(20”, “60” for “75”
# [1] = Human Plasma Protein Binding (PPB), RED device; format: in vitro ADME; settings: for Free Fraction: Improvement vs. REF-001: human plasma; for Human PPB / fraction unbound at 240 min, 5 µM: human plasma pH 7.4, 37° C., 240 min
# Description: Method 4: Human Plasma Protein Binding (PPB)
# Materials and solutions: • Human Plasma (Sera Labs, […]). • Bupropion hydrochloride (Sigma, B102). • DPBS (Sigma, D8537). • Formic Acid (Sigma, F0507). • RED Device Single Use (Life Technologies, 90006). • Internal standard solution preparation: A solution of bupropion hydrochloride (50 μL, 10 mM in DMSO) was combined with 0.1% formic acid (1 mL) in acetonitrile (1000 mL).
# Once frozen plasma was defrosted and adjusted to pH 7.4 using 1 M lactic acid solution and a portion of this mixture (792 μL) combined with each test compound solution (8 μL, 0.5 mM in DMSO). Portions of the resultant spiked plasma (200 μL) were added to sample compartments of the RED device. DBPS (350 μL) was added to each corresponding buffer compartment. An initial sample (50 μL) was taken and then the RED plate was sealed and incubated at 37° C. for 240 min on an orbital shaker (200 rpm) in a humidified CO2 (5%) atmosphere, alongside plasma and DBPS samples. Each sample well was treated with internal standard solution (300 μL). Aliquots (50 μL) were removed from each buffer well and sample well and replaced with incubated plasma (50 μL) or incubated DPBS (50 μL) respectively. The plate was sealed and centrifuged (3500 rpm, 15 min). Aliquots of the supernatant (100 μL) were combined with water (50 μL) for analysis using a Waters TQS Mass Spectrometer.
# human CDK7/cycH/MAT1 = human CDK7/cycH/MAT1 (Homo sapiens (Human), UniProt P50613); assay: CDK7 IC50 (ADP-Glo kinase assay); format: biochemical; settings: for IC50: ATP 8 μM, CDKtide substrate; for Ratio CDK2/CDK7: CDK2 IC50 / CDK7 IC50 selectivity; for CDK2/CDK7 Selectivity: Improvement vs. REF-001: ratio of CDK2/CDK7 ratios; for CDK7 Potency: Improvement vs. REF-001: ratio of CDK7 IC50 of REF-001 to compound
# Description: A reaction mixture (6 μL) containing the following components was prepared: 60 mM HEPES (60 mM, pH 7.5), sodium orthovanadate (3 μM), PEG-20000 (50 μg/mL), DTT (1.2 mM), MgCl2 (3 mM), MnCl2 (3 mM), purified human CDK7/cycH/MAT1 (4 μg/mL), CDKtide (10 μM), ATP (8 μM) and test compound at the appropriate concentration such that the final concentration of DMSO was 1% w/w. The reaction mixture was incubated at 30° C. for 30 min and then stopped by the addition of ADP-Glo Reagent (6 μL). The reaction was incubated at 25° C. for 1 h to deplete the remaining ATP. Subsequently, Kinase Detection Reagent (12 μL) was added and the reaction was allowed to proceed for 1 h at 25° C. before analysis by luminescence measurement using an Envision Plate Reader (Perkin Elmer).
# BCRP = BCRP (Homo sapiens (Human), UniProt Q9UNQ0); assay: MDCK-BCRP Efflux Ratio; format: in vitro ADME; settings: dog, pH 7.4, HBSS pH 7.4, 37° C.
# Text: Method 6: MDCK-BCRP Efflux Ratio
# Essentially the same as Method 5, but using MDCK/BCRP Ready™ cell plates (Readycell) in place of MDCK/MDR1 plates.
# [2] = test system: MCF-7 breast cancer cell line; settings: with 4-hydroxytamoxifen or Faslodex, ERα-positive MCF-7 cells; cited from earlier work
# Sequence of human CDK9/cycK (P50750 whole entry): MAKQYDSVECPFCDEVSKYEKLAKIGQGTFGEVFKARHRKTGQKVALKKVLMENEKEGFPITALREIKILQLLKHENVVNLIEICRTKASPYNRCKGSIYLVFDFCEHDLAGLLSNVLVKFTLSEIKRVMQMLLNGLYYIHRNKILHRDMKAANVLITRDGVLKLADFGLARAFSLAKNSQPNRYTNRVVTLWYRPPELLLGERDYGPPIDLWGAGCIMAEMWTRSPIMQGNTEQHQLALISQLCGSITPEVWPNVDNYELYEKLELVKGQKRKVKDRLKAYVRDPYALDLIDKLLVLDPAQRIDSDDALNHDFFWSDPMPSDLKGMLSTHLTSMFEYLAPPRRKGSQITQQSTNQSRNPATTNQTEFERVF
# Sequence of human CDK9/cycK (O75909 whole entry partner): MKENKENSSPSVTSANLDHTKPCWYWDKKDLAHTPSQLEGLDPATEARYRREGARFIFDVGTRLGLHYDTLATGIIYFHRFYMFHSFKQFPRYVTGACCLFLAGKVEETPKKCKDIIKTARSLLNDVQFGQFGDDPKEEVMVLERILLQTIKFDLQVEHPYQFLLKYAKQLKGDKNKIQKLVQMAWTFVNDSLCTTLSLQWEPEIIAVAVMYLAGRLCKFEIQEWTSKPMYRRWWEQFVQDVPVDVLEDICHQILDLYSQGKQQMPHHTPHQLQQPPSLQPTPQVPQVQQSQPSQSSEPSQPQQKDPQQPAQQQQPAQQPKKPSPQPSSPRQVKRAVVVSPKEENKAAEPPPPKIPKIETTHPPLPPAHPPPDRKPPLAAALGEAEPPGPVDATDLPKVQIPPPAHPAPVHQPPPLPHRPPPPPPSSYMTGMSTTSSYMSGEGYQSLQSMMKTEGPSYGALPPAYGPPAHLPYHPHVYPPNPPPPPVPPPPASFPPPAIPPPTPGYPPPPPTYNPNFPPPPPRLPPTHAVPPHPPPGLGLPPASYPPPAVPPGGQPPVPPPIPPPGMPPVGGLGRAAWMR
# Sequence of human CDK7/cycH/MAT1 (P50613 whole entry): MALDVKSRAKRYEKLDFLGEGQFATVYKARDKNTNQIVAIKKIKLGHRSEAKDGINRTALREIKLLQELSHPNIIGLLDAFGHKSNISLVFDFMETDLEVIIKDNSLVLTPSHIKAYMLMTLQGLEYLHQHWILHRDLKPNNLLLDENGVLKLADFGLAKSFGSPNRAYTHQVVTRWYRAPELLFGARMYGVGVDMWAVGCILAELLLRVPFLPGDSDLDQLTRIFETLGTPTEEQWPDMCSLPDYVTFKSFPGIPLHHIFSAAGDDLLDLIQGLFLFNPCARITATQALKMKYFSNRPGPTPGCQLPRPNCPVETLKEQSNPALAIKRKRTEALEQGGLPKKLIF
# Sequence of human CDK7/cycH/MAT1 (P51946 whole entry partner): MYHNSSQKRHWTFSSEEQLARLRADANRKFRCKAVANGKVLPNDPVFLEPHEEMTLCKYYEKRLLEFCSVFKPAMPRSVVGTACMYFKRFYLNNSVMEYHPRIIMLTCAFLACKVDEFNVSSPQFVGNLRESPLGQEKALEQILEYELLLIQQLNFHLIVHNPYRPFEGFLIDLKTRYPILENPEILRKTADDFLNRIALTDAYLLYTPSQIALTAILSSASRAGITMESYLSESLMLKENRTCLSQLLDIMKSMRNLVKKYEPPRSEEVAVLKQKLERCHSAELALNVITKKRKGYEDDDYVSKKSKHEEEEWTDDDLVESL
# Sequence of human CDK7/cycH/MAT1 (P51948 whole entry partner): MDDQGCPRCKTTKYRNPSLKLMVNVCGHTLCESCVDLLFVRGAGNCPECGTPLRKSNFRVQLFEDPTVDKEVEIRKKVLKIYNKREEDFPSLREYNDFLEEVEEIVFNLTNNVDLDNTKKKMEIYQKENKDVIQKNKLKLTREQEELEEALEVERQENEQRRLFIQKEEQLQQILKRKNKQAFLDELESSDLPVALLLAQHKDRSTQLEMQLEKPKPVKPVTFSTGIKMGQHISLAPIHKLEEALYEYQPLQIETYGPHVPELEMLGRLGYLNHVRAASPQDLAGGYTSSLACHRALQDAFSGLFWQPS
# Sequence of MDR1 (P08183 whole entry): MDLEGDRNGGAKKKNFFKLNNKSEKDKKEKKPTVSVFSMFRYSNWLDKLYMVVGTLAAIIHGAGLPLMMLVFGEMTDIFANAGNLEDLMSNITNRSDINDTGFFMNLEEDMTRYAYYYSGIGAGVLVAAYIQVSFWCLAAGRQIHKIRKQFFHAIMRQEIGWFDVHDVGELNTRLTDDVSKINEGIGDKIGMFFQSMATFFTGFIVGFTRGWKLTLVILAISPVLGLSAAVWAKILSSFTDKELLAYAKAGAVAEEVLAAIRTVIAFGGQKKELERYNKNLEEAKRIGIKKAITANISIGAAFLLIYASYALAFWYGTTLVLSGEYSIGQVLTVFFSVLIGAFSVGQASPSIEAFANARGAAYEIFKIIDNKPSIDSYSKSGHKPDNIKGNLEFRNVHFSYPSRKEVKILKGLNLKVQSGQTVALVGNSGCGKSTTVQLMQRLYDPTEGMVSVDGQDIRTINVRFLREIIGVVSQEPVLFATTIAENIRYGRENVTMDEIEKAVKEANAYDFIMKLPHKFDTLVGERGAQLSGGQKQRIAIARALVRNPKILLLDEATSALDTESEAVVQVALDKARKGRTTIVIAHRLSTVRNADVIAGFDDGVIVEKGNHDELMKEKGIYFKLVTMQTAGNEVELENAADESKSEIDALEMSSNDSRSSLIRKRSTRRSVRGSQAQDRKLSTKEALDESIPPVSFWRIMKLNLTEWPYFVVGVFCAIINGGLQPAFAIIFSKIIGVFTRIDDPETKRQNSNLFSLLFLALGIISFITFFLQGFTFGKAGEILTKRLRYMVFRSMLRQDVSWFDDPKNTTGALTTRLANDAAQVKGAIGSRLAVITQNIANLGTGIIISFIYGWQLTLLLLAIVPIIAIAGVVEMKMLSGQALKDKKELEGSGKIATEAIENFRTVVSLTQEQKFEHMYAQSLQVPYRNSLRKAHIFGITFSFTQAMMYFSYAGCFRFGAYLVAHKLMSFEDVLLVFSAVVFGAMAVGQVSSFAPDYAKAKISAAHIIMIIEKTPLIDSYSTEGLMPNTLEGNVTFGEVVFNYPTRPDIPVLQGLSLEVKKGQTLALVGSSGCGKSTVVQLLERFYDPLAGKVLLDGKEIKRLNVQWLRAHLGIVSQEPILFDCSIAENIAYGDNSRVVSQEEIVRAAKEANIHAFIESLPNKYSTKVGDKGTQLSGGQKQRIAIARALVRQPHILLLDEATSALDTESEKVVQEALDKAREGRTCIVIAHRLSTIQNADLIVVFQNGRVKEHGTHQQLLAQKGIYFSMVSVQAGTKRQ
# Sequence of BCRP (Q9UNQ0 whole entry): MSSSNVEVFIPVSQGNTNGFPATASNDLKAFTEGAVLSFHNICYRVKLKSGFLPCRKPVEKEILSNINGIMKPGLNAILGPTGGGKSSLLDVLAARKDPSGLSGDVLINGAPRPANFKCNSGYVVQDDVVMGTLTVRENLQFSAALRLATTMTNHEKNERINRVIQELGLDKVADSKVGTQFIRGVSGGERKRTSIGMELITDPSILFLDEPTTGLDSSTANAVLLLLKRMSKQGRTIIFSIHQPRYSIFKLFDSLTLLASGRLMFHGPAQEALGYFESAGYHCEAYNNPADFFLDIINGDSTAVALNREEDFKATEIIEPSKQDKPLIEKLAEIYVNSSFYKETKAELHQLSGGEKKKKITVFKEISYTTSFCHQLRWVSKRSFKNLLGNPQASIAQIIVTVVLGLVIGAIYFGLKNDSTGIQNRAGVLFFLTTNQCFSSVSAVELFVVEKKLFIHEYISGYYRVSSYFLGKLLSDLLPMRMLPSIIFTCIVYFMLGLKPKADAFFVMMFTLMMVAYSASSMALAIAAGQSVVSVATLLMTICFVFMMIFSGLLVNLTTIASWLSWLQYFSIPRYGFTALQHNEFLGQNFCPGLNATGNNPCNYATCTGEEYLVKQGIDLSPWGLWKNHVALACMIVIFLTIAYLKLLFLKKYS
"efflux ratio at 2 h, 10 µM (MDR1)",IC50 (human CDK2/cycE1) [nM],IC50 (human CDK9/cycK) [nM],Free Fraction: Improvement vs. REF-001 [1] [fold],Human PPB [1] [%],"fraction unbound at 240 min, 5 µM [1]",IC50 (human CDK7/cycH/MAT1) [nM],Ratio CDK2/CDK7 (human CDK7/cycH/MAT1),CDK2/CDK7 Selectivity: Improvement vs. REF-001 (human CDK7/cycH/MAT1) [fold],CDK7 Potency: Improvement vs. REF-001 (human CDK7/cycH/MAT1) [fold],"efflux ratio at 2 h, 10 µM (BCRP)",Compound,effect of the combination with an anti-estrogen on growth of breast cancer cells [2]
2,640,200,2.14,85,0.15,13,49,2.54,2.62,5,"CCc1cnn2c(NCc3ccccc3F)cc(NC[C@H]3CCNC[C@@H]3O)nc12 [APPAMP-001, (3R,4R)-4-(((3-ethyl-7-((2-fluorobenzyl)amino)pyrazolo[1,5-a]pyrimidin-5-yl)amino)methyl)piperidin-3-ol]",–
5.7,770,210,2.43,83,0.17,33,23,1.20,1.03,2,"O[C@H]1CNCC[C@@H]1CNc1cc(NCc2ccccc2)n2ncc(C3CC3)c2n1 [APPAMP-002, (3R,4R)-4-(((7-(benzylamino)-3-cyclopropylpyrazolo[1,5-a]pyrimidin-5-yl)amino)methyl)piperidin-3-ol]",–
–,190,22,–,–,–,8.9,21,1.10,3.82,–,"CCc1cnn2c(NCc3cccc(C#N)c3)cc(NC[C@H]3CCNC[C@@H]3O)nc12 [APPAMP-003, 3-(((3-ethyl-5-((((3R,4R)-3-hydroxypiperidin-4-yl)methyl)amino)pyrazolo[1,5-a]pyrimidin-7-yl)amino)methyl)benzonitrile]",–
–,2400,130,–,–,–,4.2,571,29.4,8.10,–,"CCc1cnn2c(NCc3cccc(C#N)c3)c(Cl)c(NC[C@H]3CCNC[C@@H]3O)nc12 [APPAMP-004, 3-(((6-chloro-3-ethyl-5-((((3R,4R)-3-hydroxypiperidin-4-yl)methyl)amino)pyrazolo[1,5-a]pyrimidin-7-yl)amino)methyl)benzonitrile]",–
–,–,–,–,93,0.07,–,–,–,–,–,"CC(C)c1cnn2c(NCc3ccccc3)cc(NC[C@H]3CCNC[C@@H]3O)nc12 [REF-001, (3R,4R)-4-(((7-(benzylamino)-3-isopropylpyrazolo[1,5-a]pyrimidin-5-yl)amino)methyl)piperidin-3-ol, reference compound]",synergistic effects
